How the values were obtained:
[1] = biological target: inactivated p38 MAP kinase (Homo sapiens, UniProt Q16539); experiment: binding to inactivated p38 MAP kinase; details: read-out: binds to inactivated p38 MAP kinase, Kd
[2] = biological target: COX2 (Homo sapiens, UniProt P35354); experiment: COX2 inhibition; type: biochemical
[3] = tested on: rabbit anterior cruciate ligament transection (ACLT) model of osteoarthritis; experiment: ACLT model pilot study, JNJ 3026582 (Example VI); type: in vivo
Method: New Zealand white rabbits (male, six to eight pounds) were anesthetized with ketamine (17 mg/kg) and xylazine (2.5 mg/kg). Supplementation was given during surgery, if needed, with an additional intramuscular injection of ketamine (35 mg/kg) and xylazine (5 mg/kg). The animals were given buprenorphine (0.01-0.05 mg/kg) for analgesia via a subcutaneous injection. The buprenorphine was administered every twelve hours for seventy-two hours. After induction of anesthesia, the right leg was clipped free of hair using electric animal clippers. The area around the site of surgery was scrubbed with chlorhexidine diacetate, rinsed with alcohol, dried, and painted with an aqueous iodophor solution of 1% available iodine and surgery was prepared using aseptic technique. In the right limb of each animal, the anterior cruciate ligament (ACL) was transected. A medial parapatellar incision was made and the patella was dislocated. The knee was flexed and the ACL visualized. A scalpel blade was positioned behind the ACL and brought anteriorly, thereby cutting the ACL while protecting the posterior cruciate ligament. The patella was returned to the normal anatomic position. The wound was closed in layers.
Following surgery, the animals were left untreated for six weeks. After six weeks, a series of five injections of the test compound were injected intra-articularly once weekly.
The animals were euthanized six weeks after initiation with an intravenous injection of pentobarbital (60 mg/kg). […] Immediately following euthanasia, gross observations of the knee joints were made and any abnormality was recorded. The joints were analyzed for disease state in the trochlear groove, the femoral condyles and the tibial plateau. Pathological assessments were performed on the sectioned tissue. Condylar structure, cellularity, presence of GAG and presence of cartilage were evaluated.
Sterile formulations of JNJ 3026582 (RWJ 67657) were prepared by gamma irradiation (1.5 mRAD) on dry ice. DMSO was sterile filtered and the remaining formulations were prepared aseptically. Specifically, 11.5 mg of JNJ 3026582 (RWJ 67657) was dissolved in 4 mL DMSO and the solution was thoroughly mixed with 5 mL of ARTHREASE® (Lot: 11840812) (Biotechnology General (Israel) Ltd.). The final concentration of JNJ 3026582 (RWJ 67657) in the formulation was 1.3 μg/μL and was considered the high dose. The mid dose was made by a 1:10 dilution of the high dose. The low dose was created in the same fashion as the mid dose i.e., by a 1:10 dilution of the mid dose.
A total of four rabbits (n=4) underwent ACLT of the right limb according to the ACLT model described above.
As discussed above, each formulation was injected once per week for five weeks. 160 μI was injected each time via a 26G (gauge) needle. The vehicle for the formulation was ARTHREASE® (Bio-Technology General (Israel) Ltd.).
At the time of sacrifice, the following parameters were evaluated grossly (the scale follows in parenthesis):
Each parameter was given a score. The combination of all parameters gave a Total Score. A higher score indicates more damage to the joint. The most clinically relevant parameters are discussed in detail below.

Chain of inactivated p38 MAP kinase (Q16539 whole entry): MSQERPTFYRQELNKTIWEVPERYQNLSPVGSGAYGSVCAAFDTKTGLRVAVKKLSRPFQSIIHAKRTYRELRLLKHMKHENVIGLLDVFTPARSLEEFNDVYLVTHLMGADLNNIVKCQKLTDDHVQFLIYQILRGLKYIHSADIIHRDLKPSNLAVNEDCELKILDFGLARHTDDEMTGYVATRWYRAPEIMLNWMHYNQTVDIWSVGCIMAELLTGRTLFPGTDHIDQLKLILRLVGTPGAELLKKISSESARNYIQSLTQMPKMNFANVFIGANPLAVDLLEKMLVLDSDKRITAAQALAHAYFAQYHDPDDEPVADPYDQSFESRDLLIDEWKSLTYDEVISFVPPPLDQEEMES
Chain of COX2 (P35354 18-604): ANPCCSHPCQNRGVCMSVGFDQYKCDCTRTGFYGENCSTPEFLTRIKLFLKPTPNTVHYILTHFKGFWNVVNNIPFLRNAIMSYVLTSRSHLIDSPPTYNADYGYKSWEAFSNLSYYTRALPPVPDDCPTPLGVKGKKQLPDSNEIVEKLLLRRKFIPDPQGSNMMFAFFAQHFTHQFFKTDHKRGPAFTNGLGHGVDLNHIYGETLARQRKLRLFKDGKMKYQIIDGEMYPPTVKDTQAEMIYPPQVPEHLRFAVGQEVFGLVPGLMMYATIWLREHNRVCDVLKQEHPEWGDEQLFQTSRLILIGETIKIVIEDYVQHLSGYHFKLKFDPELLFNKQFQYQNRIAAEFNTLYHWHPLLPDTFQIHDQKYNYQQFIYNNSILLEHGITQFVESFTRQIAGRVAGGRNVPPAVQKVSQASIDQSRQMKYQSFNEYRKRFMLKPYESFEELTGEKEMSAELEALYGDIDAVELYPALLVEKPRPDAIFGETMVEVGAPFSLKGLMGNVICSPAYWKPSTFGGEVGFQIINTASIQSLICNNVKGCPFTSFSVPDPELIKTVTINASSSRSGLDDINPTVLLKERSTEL

`CC(=O)N1CCN(c2c(-c3ccncc3)c(-c3ccc(F)cc3)c(C#N)n2C)CC1` [JNJ 17089540 (RWJ 669307)] showed a Kd [1] of 100 nM and an IC50 [2] greater than 10000 nM.

`OCCC#Cc1nc(-c2ccc(F)cc2)c(-c2ccncc2)n1CCCc1ccccc1` [JNJ 3026582 (RWJ 67657), 4-[4-(4-fluorophenyl)-1-(3-phenylpropyl)-5-(4-pyridinyl)-1H-imidazol-2-yl]-3-butyn-1-ol] was tested, and the “Appearance of Meniscus Lateral, mean score” value ([3]; High 50 μg/kg) was 2.00, the “Appearance of Meniscus Medial, mean score” value ([3]; High 50 μg/kg) was 2.25 and the “Appearance of Patella, mean score” value ([3]; High 50 μg/kg) was 1.25. For the same compound, the “Femoral Condyle Presence of Clefts, mean score” value (shortened to “Femoral Condyle Presence”) ([3]; High 50 μg/kg) was 0, the “Tibial Plateau (Lateral) # of Osteophytes, mean score” value (from here on “Tibial Plateau (Lateral) #”) ([3]; High 50 μg/kg) was 2.00 and the “Tibial Plateau (Lateral) Depth of Erosion, mean score” value (“Tibial Plateau (Lateral) Depth” for short) ([3]; High 50 μg/kg) was 2.06. The “Tibial Plateau (Lateral) Presence of Clefts, mean score” value (“Tibial Plateau (Lateral) Presence” for short) ([3]; High 50 μg/kg) was 0, the “Tibial Plateau (Lateral) Surface Area Erosion, mean score” value ([3]; High 50 μg/kg) was 2.50 and the “Tibial Plateau (Medial) # of Osteophytes, mean score” value (from here on “Tibial Plateau (Medial) #”) ([3]; High 50 μg/kg) was 1.63. For the same compound, the “Tibial Plateau (Medial) Depth of Erosion, mean score” value (“Tibial Plateau (Medial) Depth” below) ([3]; High 50 μg/kg) was 1.94, the “Tibial Plateau (Medial) Presence of Clefts, mean score” value (shortened to “Tibial Plateau (Medial) Presence”) ([3]; High 50 μg/kg) was 0 and the “Tibial Plateau (Medial) Surface Area Erosion, mean score” value ([3]; High 50 μg/kg) was 2.50. For the same compound, the “Trochlear Groove # of Osteophytes, mean score” value (from here on “Trochlear Groove #”) ([3]; High 50 μg/kg) was 3.00, the “Trochlear Groove Erosion of Cartilage, mean score” value (“Trochlear Groove Erosion” for short) ([3]; High 50 μg/kg) was 1.25 and the “Trochlear Groove Osteophyte Size, mean score” value ([3]; High 50 μg/kg) was 3.00. For the same compound, the “Trochlear Groove Thickening, mean score” value ([3]; High 50 μg/kg) was 0.25, the “Appearance of Meniscus Lateral, mean score” value ([3]; Low 0.5 μg/kg) was 1.25 and the “Appearance of Meniscus Medial, mean score” value ([3]; Low 0.5 μg/kg) was 1.25. The “Appearance of Patella, mean score” value ([3]; Low 0.5 μg/kg) was 0.50, the “Femoral Condyle Presence” value ([3]; Low 0.5 μg/kg) was 0 and the “Tibial Plateau (Lateral) #” value ([3]; Low 0.5 μg/kg) was 1.75. For the same compound, the “Tibial Plateau (Lateral) Depth” value ([3]; Low 0.5 μg/kg) was 2.13, the “Tibial Plateau (Lateral) Presence” value ([3]; Low 0.5 μg/kg) was 0 and the “Tibial Plateau (Lateral) Surface Area Erosion, mean score” value ([3]; Low 0.5 μg/kg) was 2.00. For the same compound, the “Tibial Plateau (Medial) #” value ([3]; Low 0.5 μg/kg) was 1.50, the “Tibial Plateau (Medial) Depth” value ([3]; Low 0.5 μg/kg) was 0.50 and the “Tibial Plateau (Medial) Presence” value ([3]; Low 0.5 μg/kg) was 0. The “Tibial Plateau (Medial) Surface Area Erosion, mean score” value ([3]; Low 0.5 μg/kg) was 0.25, the “Trochlear Groove #” value ([3]; Low 0.5 μg/kg) was 3.00 and the “Trochlear Groove Erosion” value ([3]; Low 0.5 μg/kg) was 1.00. For the same compound, the “Trochlear Groove Osteophyte Size, mean score” value ([3]; Low 0.5 μg/kg) was 3.00, the “Trochlear Groove Thickening, mean score” value ([3]; Low 0.5 μg/kg) was 0.50 and the “Appearance of Meniscus Lateral, mean score” value ([3]; Mid 5 μg/kg) was 1.00. For the same compound, the “Appearance of Meniscus Medial, mean score” value ([3]; Mid 5 μg/kg) was 2.5, the “Appearance of Patella, mean score” value ([3]; Mid 5 μg/kg) was 1.38 and the “Femoral Condyle Presence” value ([3]; Mid 5 μg/kg) was 0. For the same compound, the “Tibial Plateau (Lateral) #” value ([3]; Mid 5 μg/kg) was 2.25, the “Tibial Plateau (Lateral) Depth” value ([3]; Mid 5 μg/kg) was 0.88 and the “Tibial Plateau (Lateral) Presence” value ([3]; Mid 5 μg/kg) was 0. For the same compound, the “Tibial Plateau (Lateral) Surface Area Erosion, mean score” value ([3]; Mid 5 μg/kg) was 2.25, the “Tibial Plateau (Medial) #” value ([3]; Mid 5 μg/kg) was 2.00 and the “Tibial Plateau (Medial) Depth” value ([3]; Mid 5 μg/kg) was 1.13. For the same compound, the “Tibial Plateau (Medial) Presence” value ([3]; Mid 5 μg/kg) was 0, the “Tibial Plateau (Medial) Surface Area Erosion, mean score” value ([3]; Mid 5 μg/kg) was 2.00 and the “Trochlear Groove #” value ([3]; Mid 5 μg/kg) was 3.00. The “Trochlear Groove Erosion” value ([3]; Mid 5 μg/kg) was 1.63, the “Trochlear Groove Osteophyte Size, mean score” value ([3]; Mid 5 μg/kg) was 3.00 and the “Trochlear Groove Thickening, mean score” value ([3]; Mid 5 μg/kg) was 0.75. The “All Cartilage Effects (0-38), average score” value (shortened to “All Cartilage Effects”) ([3]; high dose 50 μg/kg) was 19.19, the “All Condylar Effects (0-18), average score” value (shortened to “All Condylar Effects”) ([3]; high dose 50 μg/kg) was 8.69 and the “All Meniscal Effects (0-6), average score” value (from here on “All Meniscal Effects”) ([3]; high dose 50 μg/kg) was 4.25. The “Total Score (0-59), average” value ([3]; high dose 50 μg/kg) was 34.31, the “lateral femoral condyle % surface area erosion, average score” value ([3]; high dose 50 μg/kg) was 2.5 and the “medial femoral condyle % surface area erosion, average score” value ([3]; high dose 50 μg/kg) was 2.25. For the same compound, the “All Cartilage Effects” value ([3]; low dose 0.5 μg/kg) was 12.75, the “All Condylar Effects” value ([3]; low dose 0.5 μg/kg) was 6.38 and the “All Meniscal Effects” value ([3]; low dose 0.5 μg/kg) was 2.50. The “Total Score (0-59), average” value ([3]; low dose 0.5 μg/kg) was 25.00, the “lateral femoral condyle % surface area erosion, average score” value ([3]; low dose 0.5 μg/kg) was 1.23 and the “medial femoral condyle % surface area erosion, average score” value ([3]; low dose 0.5 μg/kg) was 1.5. For the same compound, the “All Cartilage Effects” value ([3]; mid dose 5 μg/kg) was 14.50, the “All Condylar Effects” value ([3]; mid dose 5 μg/kg) was 5.88 and the “All Meniscal Effects” value ([3]; mid dose 5 μg/kg) was 3.50. The “Total Score (0-59), average” value ([3]; mid dose 5 μg/kg) was 29.63, the “lateral femoral condyle % surface area erosion, average score” value ([3]; mid dose 5 μg/kg) was 0.75 and the “medial femoral condyle % surface area erosion, average score” value ([3]; mid dose 5 μg/kg) was 1.63.

Reference: US8986696B2, “Trans-capsular administration of p38 map kinase inhibitors into orthopedic joints” (DePuy Mitek, Inc., priority 2007, dated 2015)
